Data as given in PMC6130797 (ACS Omega, 2018).
Where “and” joins values, the source holds several entries; their conditions need not be identical. Equal entries are not always repeated. Where two headings read alike, the source gives them in different places.

Key:
gpH1R = gpH1R (Cavia porcellus, UniProt P31389); assay: Histamine H1 receptor assay on isolated guinea pig ileum
hH3R [1] = target: T1, hH3R (Homo sapiens, UniProt Q9Y5N1); assay: Radioligand competition binding with [3H]Nα-methylhistamine, Sf9 cell membranes
T1 sequence (Q9Y5N1 whole entry): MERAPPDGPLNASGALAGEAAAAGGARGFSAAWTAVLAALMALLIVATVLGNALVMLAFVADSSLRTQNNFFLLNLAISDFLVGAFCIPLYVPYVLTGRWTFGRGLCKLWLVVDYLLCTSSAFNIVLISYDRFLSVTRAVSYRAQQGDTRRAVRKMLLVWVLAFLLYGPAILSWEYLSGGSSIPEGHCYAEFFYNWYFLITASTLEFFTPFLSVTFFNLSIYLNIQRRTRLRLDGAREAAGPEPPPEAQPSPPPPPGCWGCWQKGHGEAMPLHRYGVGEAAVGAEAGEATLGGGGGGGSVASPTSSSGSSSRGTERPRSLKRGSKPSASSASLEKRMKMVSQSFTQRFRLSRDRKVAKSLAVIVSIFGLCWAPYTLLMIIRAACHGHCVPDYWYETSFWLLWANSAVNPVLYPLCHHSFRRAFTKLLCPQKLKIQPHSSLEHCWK

hH1R = hH1R (Homo sapiens, UniProt P35367); assay: biochemical; assay type: binding
hH1R, sequence (P35367 whole entry): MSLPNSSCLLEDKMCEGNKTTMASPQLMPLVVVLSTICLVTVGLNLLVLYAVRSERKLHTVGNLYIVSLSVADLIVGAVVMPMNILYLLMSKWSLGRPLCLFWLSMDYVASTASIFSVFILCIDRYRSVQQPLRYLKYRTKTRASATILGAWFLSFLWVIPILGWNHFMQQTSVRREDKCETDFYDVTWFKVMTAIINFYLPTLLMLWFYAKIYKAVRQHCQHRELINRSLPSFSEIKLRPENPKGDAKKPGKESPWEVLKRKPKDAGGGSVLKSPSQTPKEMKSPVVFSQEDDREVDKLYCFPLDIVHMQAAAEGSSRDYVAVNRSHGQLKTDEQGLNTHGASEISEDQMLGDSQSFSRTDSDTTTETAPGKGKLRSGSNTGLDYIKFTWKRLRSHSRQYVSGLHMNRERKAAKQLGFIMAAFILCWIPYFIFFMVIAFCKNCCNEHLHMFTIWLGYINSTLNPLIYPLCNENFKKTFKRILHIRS

gpH2R = gpH2R (Cavia porcellus, UniProt P47747); set-up: species or system guinea pig
gpH2R, sequence (P47747 whole entry): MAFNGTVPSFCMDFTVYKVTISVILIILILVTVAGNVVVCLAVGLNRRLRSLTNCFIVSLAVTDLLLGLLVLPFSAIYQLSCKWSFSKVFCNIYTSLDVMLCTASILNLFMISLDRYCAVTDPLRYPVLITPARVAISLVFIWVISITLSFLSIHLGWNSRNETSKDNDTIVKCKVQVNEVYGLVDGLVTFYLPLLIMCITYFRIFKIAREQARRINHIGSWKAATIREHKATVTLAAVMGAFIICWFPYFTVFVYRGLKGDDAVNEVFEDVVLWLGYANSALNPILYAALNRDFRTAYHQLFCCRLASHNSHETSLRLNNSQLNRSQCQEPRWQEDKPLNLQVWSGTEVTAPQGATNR

hH4R [2] = target: T2, hH4R (Homo sapiens, UniProt Q9H3N8); assay: Radioligand competition binding with [3H]histamine, Sf9 cell membranes
hH2R [3] = target: T3, hH2R (Homo sapiens, UniProt P25021); assay type: binding
T3 sequence (P25021 whole entry): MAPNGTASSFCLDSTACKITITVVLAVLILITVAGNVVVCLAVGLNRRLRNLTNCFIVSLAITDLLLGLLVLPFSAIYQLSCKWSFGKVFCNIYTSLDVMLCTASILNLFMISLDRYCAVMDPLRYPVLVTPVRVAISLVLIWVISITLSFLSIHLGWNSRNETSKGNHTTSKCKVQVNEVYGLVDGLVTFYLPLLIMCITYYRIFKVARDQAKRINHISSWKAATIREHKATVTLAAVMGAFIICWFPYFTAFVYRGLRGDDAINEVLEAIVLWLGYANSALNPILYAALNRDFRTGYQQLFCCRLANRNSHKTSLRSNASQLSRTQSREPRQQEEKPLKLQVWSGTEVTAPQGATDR
T3 sequence (P63092 1-380 isoform P63092-2 partner): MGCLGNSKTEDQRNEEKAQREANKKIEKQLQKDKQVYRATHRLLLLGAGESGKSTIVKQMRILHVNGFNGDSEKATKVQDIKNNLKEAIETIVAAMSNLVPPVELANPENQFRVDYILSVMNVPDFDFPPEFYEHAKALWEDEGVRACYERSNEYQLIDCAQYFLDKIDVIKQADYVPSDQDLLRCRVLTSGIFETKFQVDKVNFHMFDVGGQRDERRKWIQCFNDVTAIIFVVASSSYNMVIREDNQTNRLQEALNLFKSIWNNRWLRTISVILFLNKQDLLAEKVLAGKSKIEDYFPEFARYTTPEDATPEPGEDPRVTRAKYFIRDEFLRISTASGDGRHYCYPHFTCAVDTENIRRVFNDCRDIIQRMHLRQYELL

hH2R [4] = target: T3, hH2R; assay: [35S]GTPγS binding assay, Sf9 cell membranes; assay type: biochemical
hH3R [5] = target: T1, hH3R; assay: [35S]GTPγS binding assay, Sf9 cell membranes; assay type: biochemical
hH4R [6] = target: T2, hH4R; assay: [35S]GTPγS binding assay, Sf9 cell membranes; assay type: biochemical
[7] = hH3R pKi, [3H]Nα-methylhistamine (Kd 8.6 nM, c = 3 nM), mean ± SEM
[8] = hH2R pKi, [3H]tiotidine (Kd […], c = 10 nM), mean ± SEM
[9] = hH1R pKi, [3H]mepyramine (Kd 4.5 nM, c = 5 nM), mean ± SEM

gpH1R, sequence (P31389 whole entry): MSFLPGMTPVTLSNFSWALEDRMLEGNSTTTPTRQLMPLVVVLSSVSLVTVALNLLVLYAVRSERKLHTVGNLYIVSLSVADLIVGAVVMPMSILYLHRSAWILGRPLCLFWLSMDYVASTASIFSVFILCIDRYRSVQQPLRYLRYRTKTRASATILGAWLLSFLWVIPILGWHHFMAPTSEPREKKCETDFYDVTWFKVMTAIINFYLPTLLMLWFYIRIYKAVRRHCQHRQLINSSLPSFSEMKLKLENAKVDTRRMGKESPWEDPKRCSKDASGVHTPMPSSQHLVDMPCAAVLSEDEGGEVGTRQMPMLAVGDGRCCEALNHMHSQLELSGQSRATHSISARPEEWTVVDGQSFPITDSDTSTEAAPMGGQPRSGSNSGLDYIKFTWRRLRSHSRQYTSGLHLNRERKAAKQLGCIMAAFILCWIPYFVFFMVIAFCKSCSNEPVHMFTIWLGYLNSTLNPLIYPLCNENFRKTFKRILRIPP

| SMILES | Kb (gpH1R) | Ki (hH3R [1]; [7]) | Ki (hH1R; hH1R pKi) | EC50 (gpH2R) | gpH2R Emax (gpH2R) | Ki (hH4R [2]; hH4R pKi) | Ki (hH2R [3]; [8]) | further results |
| --- | --- | --- | --- | --- | --- | --- | --- | --- |
| N=C(NCCCCNC(=N)NCCCc1c[nH]cn1)NCCCc1c[nH]cn1 [Compound 54] | 1290 nM | 145 nM | > 10000 nM | 38 nM | 0.94 ± 0.01 | 661 nM | 407 nM | – |
| N=C(NCCCCCCCCNC(=N)NCCCn1ccnc1)NCCCn1ccnc1 [Compound 60] | 4270 nM | 2750 nM | > 10000 nM | 4900 nM | 0.20 and 0.20 ± 0.02 | 33900 nM | 4470 nM | – |
| CNC(=N)NCCCc1c[nH]cn1 [Compound 127] | 58900 nM | 155 nM | – | 7940 nM | 0.58 ± 0.07 | 26.3 nM | 2750 nM | Ki (hH1R; [9]): > 31600 nM |
| CCNC(=N)NCCCc1c[nH]cn1 [Compound 128] | 8320 nM | 93.3 nM | – | 7240 nM | 0.55 ± 0.07 | 13.5 nM | 4900 nM | Ki (hH1R; [9]): > 31600 nM |
| CCCNC(=N)NCCCc1c[nH]cn1 [Compound 129, 1-[3-(1H-Imidazol-4-yl)propyl]-3-propylguanidine] | – | – | – | – | 0.83 ± 0.03 | – | 3020 nM | Ki (hH3R [1]; Ki hH3R, bound stated): < 100 nM; Ki (hH1R; Ki hH1R, bound stated): > 1000 nM; Ki (hH1R; [9]): > 31600 nM; Ki (hH4R [2]; Ki hH4R, bound stated): < 100 nM; Ki (hH2R [3]; Ki hH2R, bound stated): > 1000 nM |
| CC(C)NC(=N)NCCCc1c[nH]cn1 [Compound 130] | 5370 nM | 91.2 nM | > 10000 nM | 1550 nM | 0.87 ± 0.04 | 38 nM | 4170 nM | – |
| CCCCNC(=N)NCCCc1c[nH]cn1 [Compound 131] | 4070 nM | 61.7 nM | > 10000 nM | 832 nM | 0.86 ± 0.04 | 9.12 nM | 776 nM | – |
| CC(C)CNC(=N)NCCCc1c[nH]cn1 [Compound 132] | 10200 nM | 66.1 nM | – | 1350 nM | 0.86 ± 0.08 | 17.8 nM | 759 nM | Ki (hH1R; [9]): > 31600 nM |
| CC(C)(C)NC(=N)NCCCc1c[nH]cn1 [Compound 133] | – | 372 nM | > 100000 nM | 15100 nM | 0.92 ± 0.03 | 219 nM | 2510 nM | – |
| CCCCCNC(=N)NCCCc1c[nH]cn1 [Compound 134] | 4470 nM | 91.2 nM | > 10000 nM | 363 nM | 0.90 ± 0.02 | 6.76 nM | 933 nM | – |
| CC(C)CCNC(=N)NCCCc1c[nH]cn1 [Compound 135] | 7240 nM | 115 nM | > 10000 nM | 240 nM | 0.89 ± 0.05 | 25.1 nM | 794 nM | – |
| CCCCCCCCCCCCNC(=N)NCCCc1c[nH]cn1 [Compound 138] | 195 nM | 29.5 nM | 2950 nM | 234 nM | 0.91 and 0.91 ± 0.03 | 12.6 nM | 603 nM | – |
| CCCCCCCCCCCCNC(=N)NCCCc1sc(N)nc1C [Compound 139] | 437 nM | 2040 nM | > 3160 nM | 269 nM | 0.60 ± 0.02 | 5620 nM | 468 nM | EC50 (hH2R [4]): 6920 nM; Kb (hH3R [5]): 4270 nM; hH3R Emax (hH3R [5]): 0; EC50 (hH4R [6]): 13800 nM; hH4R Emax (hH4R [6]): –0.97 ± 0.01; quality of action at hH4R (hH4R [6]; [35S]GTPγS binding assay): inverse agonistic activity |
| CCCCCCCCCCCCNC(=N)NCCCc1cnc(N)s1 [Compound 140] | 372 nM | 14100 nM | > 3160 nM | 562 nM | 0.70 ± 0.01 | 11200 nM | 269 nM | – |
| CCCCCCCCCCCCNC(=N)NCCCn1ccnc1 [Compound 141] | 372 nM | 6460 nM | > 3160 nM | – | 0 | 12900 nM | 1260 nM | gpH2R pEC50 (gpH2R): not active |
| c1nc(CCCNC2=NCCCN2)c[nH]1 [Compound 145, N-[3-(1H-imidazol-4-yl)propyl]-1,4,5,6-tetrahydropyrimidin-2-amine] | 5750 nM | – | > 10000 nM | 1510 nM | – | 38 nM | 3160 nM | Ki (hH3R [1]; hH3R pKi): 186 nM; gpH2R Emax (gpH2R; guinea pig right atrium, relative to maximal increase in heart rate induced by histamine (Emax = 1.00)): 1.00 ± 0.03 |
| CNCCc1cnc[nH]1 [[^3H]N^α-methylhistamine, reference compound] | – | – | – | – | – | – | – | Kd (hH3R [1]; read-out: Kd of radioligand at hH3R, Sf9 membranes): 8.6 nM |

Now from value to compound, other results behind:

| Kb (gpH1R) | Ki (hH3R [1]; [7]) | Ki (hH1R; hH1R pKi) | EC50 (gpH2R) | gpH2R Emax (gpH2R) | Ki (hH4R [2]; hH4R pKi) | Ki (hH2R [3]; [8]) | SMILES | further results |
| --- | --- | --- | --- | --- | --- | --- | --- | --- |
| 631 nM | 112 nM | > 10000 nM | 49 nM | 0.96 and 0.96 ± 0.01 | 200 nM | 174 nM | N=C(NCCCNC(=N)NCCCc1c[nH]cn1)NCCCc1c[nH]cn1 [Compound 53] | – |
| 2040 nM | 52.5 nM | > 3160 nM | 16.6 nM | 0.90 ± 0.04 | 427 nM | 151 nM | N=C(NCCCCCCNC(=N)NCCCc1c[nH]cn1)NCCCc1c[nH]cn1 [Compound 55] | – |
| 229 nM | 19.1 nM | 1260 nM | 25.1 nM | 0.71 ± 0.04 | 20.9 nM | 33.9 nM | N=C(NCCCCCCCCCCNC(=N)NCCCc1c[nH]cn1)NCCCc1c[nH]cn1 [Compound 56] | – |
| 832 nM | 11000 nM | > 10000 nM | 20.4 nM | 0.94 ± 0.03 | 52500 nM | 234 nM | N=C(NCCCCCCCCNC(=N)NCCCc1cnc(N)s1)NCCCc1cnc(N)s1 [Compound 59] | EC50 (hH2R [4]): 295 nM; hH2R Emax (hH2R [4]): 0.40 ± 0.05; Kb (hH3R [5]): 89100 nM; hH3R Emax (hH3R [5]): 0; Kb (hH4R [6]): 263000 nM; hH4R Emax (hH4R [6]): 0; difference in pKi (H2R) over pKi (H1,3,4R) (hH2R [3]; hH2R selectivity from radioligand binding): at least 1.5 log units |
| 1410 nM | 32.4 nM | > 1000 nM | 10.2 nM | 0.91 ± 0.03 | 74.1 nM | 117 nM | Cc1nc(N)sc1CCCNC(=N)NCCCCCCCCNC(=N)NCCCc1c[nH]cn1 [Compound 61] | EC50 (hH2R [4]): 589 nM; hH2R Emax (hH2R [4]): 0.54 ± 0.05; Kb (hH3R [5]): 66.1 nM; hH3R Emax (hH3R [5]): 0; Kb (hH4R [6]): 204000 nM; hH4R Emax (hH4R [6]): 0 |
| 977 nM | 37.2 nM | > 1000 nM | 5.62 nM | 1.02 ± 0.06 | 107 nM | 53.7 nM | N=C(NCCCCCCCCNC(=N)NCCCc1cnc(N)s1)NCCCc1c[nH]cn1 [Compound 62] | EC50 (hH2R [4]): 309 nM; hH2R Emax (hH2R [4]): 0.45 ± 0.04; Kb (hH3R [5]): 81.3 nM; hH3R Emax (hH3R [5]): 0; Kb (hH4R [6]): 372000 nM; hH4R Emax (hH4R [6]): 0 |
| 794 nM | 107 nM | > 3160 nM | 195 nM | 1.13 ± 0.07 | 126 nM | 110 nM | CCCCCCCCNC(=N)NCCCc1c[nH]cn1 [Compound 136] | EC50 (hH2R [4]): 138 nM; hH2R Emax (hH2R [4]): 0.48 ± 0.02; EC50 (hH3R [5]): 28.8 nM; hH3R Emax (hH3R [5]): –0.53 ± 0.03; quality of action at hH3R (hH3R [5]; [35S]GTPγS binding assay): inverse agonistic activity; Kb (hH4R [6]): 209000 nM; hH4R Emax (hH4R [6]): 0 |
| 182 nM | 31.6 nM | 2000 nM | 295 nM | 0.90 ± 0.03 | 97.7 nM | 141 nM | CCCCCCCCCCNC(=N)NCCCc1c[nH]cn1 [Compound 137] | gpH1R pA2 (gpH1R; guinea pig ileum, antagonism of histamine-induced contraction): 6.74 |
